The target in series [1] is T1, Mushroom tyrosinase (Agaricus bisporus, UniProt O42713+Q00024+C7FF04+C7FF05). The series is described as follows: Inhibition of mushroom monophenolase.
The target of series [2] is T1, Mushroom tyrosinase. The experiment in a line: Inhibition of mushroom diphenolase.
The target in series [3] is T1, Mushroom tyrosinase. The series is described as follows: Inhibition of mushroom monophenolase activity by Lineweaver-burk reciprocal plot analysis.
The target in series [4] is T2, Mushroom tyrosinase (Agaricus bisporus) (UniProt O42713+Q00024+C7FF04+C7FF05). The series is described as follows: Inhibition of mushroom monophenolase activity using L-DOPA as substrate preincubated with substrate followed by compound addition by Lineweaver-burk reciprocal plot analysis.
Series [5] deals with T1, Mushroom tyrosinase. The series is described as follows: Inhibition of mushroom Diphenolase activity by Lineweaver-burk reciprocal plot analysis.
The target of series [6] is T2, Mushroom tyrosinase (Agaricus bisporus). The series is described as follows: Inhibition of mushroom Diphenolase activity using L-DOPA as substrate preincubated with substrate followed by compound addition by Lineweaver-burk reciprocal plot analysis.
For series [7], the target named is T3, Macrophage metalloelastase (Homo sapiens, UniProt P39900). The experiment in a line: Inhibition of human MMP-12 relative to control. The settings on record: concentration not given here. Further details: concentration or dose not given beside the values.
Target sequence in this assay (P39900 106-470 limits assumed): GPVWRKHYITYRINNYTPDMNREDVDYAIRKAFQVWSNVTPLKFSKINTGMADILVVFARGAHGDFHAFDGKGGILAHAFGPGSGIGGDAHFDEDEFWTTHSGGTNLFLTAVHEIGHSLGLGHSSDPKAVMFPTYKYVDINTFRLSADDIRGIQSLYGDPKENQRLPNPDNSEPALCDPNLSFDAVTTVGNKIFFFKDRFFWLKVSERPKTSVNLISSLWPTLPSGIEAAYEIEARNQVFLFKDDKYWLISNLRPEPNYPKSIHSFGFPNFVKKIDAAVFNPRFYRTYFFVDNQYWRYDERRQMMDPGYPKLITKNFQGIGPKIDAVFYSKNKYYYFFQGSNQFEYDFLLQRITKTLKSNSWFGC
The nature of series [8]: Inhibition of NDM-1 (unknown origin) relative to control. The settings on record: Bacteria; concentration not given here. On the set-up: concentration or dose not given beside the values.
The target of series [9] is Polymerase acidic protein (Influenza A virus (A/Puerto Rico/8/1934(H1N1))) (UniProt P03433). The experiment in a line: Inhibition of Influenza A virus N-terminal domain of PA endonuclease relative to control. Particulars: concentration not given here.
For series [10], the target named is Lethal factor (Bacillus anthracis, UniProt P15917). The series is described as follows: Inhibition of anthrax lethal factor.
For series [11], the target named is T4, Interstitial collagenase (Homo sapiens, UniProt P03956).
T4 sequence (P03956 whole entry): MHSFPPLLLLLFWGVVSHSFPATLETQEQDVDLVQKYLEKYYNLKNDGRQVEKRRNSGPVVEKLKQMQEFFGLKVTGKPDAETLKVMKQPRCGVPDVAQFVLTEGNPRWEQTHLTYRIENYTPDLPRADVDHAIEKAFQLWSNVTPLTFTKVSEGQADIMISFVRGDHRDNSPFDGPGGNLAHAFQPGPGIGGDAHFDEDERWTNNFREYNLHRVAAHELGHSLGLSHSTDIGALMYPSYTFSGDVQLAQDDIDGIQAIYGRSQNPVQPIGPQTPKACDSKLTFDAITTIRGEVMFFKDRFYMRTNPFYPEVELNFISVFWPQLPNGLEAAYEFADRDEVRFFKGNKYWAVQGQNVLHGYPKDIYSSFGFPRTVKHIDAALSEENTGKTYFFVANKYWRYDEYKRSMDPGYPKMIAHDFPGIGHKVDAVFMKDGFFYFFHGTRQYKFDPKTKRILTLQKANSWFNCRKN
The experiment in a line: Inhibition of human MMP-1.

Series [12] has as its target T5, Matrilysin (Homo sapiens, UniProt P09237).
T5 sequence (P09237 whole entry): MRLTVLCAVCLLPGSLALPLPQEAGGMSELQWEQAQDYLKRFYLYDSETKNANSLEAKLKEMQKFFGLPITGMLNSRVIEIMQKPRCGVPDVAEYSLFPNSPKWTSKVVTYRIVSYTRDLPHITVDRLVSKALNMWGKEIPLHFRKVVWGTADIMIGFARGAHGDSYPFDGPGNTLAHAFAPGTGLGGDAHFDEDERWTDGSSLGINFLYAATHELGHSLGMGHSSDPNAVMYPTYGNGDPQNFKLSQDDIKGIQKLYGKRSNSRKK
The series is described as follows: Inhibition of human MMP-7.

For series [13], the target named is Matrix metalloproteinase-9 (Homo sapiens, UniProt P14780). The series is described as follows: Inhibition of human MMP-9.
Chain of Matrix metalloproteinase-9 (P14780 whole entry): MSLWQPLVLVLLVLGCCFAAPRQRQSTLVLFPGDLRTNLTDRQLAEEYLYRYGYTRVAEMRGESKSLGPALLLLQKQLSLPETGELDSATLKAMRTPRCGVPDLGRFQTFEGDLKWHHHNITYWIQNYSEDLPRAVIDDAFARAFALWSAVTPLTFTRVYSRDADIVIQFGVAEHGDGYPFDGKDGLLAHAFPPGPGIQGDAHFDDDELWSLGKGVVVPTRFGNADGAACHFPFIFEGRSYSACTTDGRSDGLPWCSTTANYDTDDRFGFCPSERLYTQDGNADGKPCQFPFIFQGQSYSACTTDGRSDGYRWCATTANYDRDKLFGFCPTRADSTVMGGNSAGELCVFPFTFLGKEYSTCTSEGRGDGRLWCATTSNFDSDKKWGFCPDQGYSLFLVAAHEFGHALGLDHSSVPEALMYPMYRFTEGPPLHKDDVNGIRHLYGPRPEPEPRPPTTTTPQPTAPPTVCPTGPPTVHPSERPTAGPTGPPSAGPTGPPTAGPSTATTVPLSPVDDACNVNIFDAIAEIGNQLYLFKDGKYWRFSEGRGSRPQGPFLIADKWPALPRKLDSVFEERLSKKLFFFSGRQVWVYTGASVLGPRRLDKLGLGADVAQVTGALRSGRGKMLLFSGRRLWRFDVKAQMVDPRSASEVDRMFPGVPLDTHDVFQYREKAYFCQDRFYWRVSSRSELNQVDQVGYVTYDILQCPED
For series [14], the target named is Collagenase 3 (Homo sapiens, UniProt P45452). The experiment in a line: Inhibition of human MMP-13.
Series [15] deals with Neutrophil collagenase (Homo sapiens, UniProt P22894). The series is described as follows: Inhibition of human MMP-8.
Chain of Neutrophil collagenase (P22894 whole entry, the tested form may be a part): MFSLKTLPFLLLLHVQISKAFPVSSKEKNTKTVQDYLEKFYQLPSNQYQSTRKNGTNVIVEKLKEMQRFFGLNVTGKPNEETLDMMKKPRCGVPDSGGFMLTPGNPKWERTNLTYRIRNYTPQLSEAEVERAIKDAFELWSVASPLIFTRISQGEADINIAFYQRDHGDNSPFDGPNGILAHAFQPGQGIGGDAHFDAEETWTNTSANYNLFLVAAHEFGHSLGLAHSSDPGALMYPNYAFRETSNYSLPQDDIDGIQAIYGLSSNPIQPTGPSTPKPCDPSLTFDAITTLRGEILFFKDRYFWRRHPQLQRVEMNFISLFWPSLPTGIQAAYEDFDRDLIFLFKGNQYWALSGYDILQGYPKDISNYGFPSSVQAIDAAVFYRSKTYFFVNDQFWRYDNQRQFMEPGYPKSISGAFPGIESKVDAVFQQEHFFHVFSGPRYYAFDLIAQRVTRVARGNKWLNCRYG
Series [16] is filed under the species Rattus norvegicus. The series is described as follows: Cardioprotective activity in myocardial ischemia/reperfusion induced Sprague-Dawley rat injury model assessed as recovery of contractile function. In kind it is functional.
The species named for series [17] is Rattus norvegicus. The experiment in a line: Cardioprotective activity in myocardial ischemia/reperfusion induced Sprague-Dawley rat injury model assessed as improved RPP. In kind it is functional.
Series [18] is filed under the species Rattus norvegicus. The experiment in a line: Cardioprotective activity in myocardial ischemia/reperfusion induced Sprague-Dawley rat injury model assessed as improved coronary flow rate. In kind it is functional.
Series [19] is filed under the species Rattus norvegicus. The experiment in a line: Cardioprotective activity in myocardial ischemia/reperfusion induced Sprague-Dawley rat injury model assessed as reduction in muscle damage. In kind it is functional. Further details: scale not given: the % may be the effect or the level left.
Series [20] is filed under the species Rattus norvegicus. The series is described as follows: Cardioprotective activity in myocardial ischemia/reperfusion induced Sprague-Dawley rat injury model assessed as reduction in fibrillar collagen damage. In kind it is functional. On the set-up: scale not given: the % may be the effect or the level left.
In series [21] the test system is Glycine max. The series is described as follows: Inhibition of soybean 5-LOX relative to control.
Series [22] addresses Amine oxidase [flavin-containing] B (Homo sapiens, UniProt P27338). The series is described as follows: Inhibition of human MAO-B.
Series [23] has as its target T6, Stromelysin-1 (Homo sapiens, UniProt P08254). The series is described as follows: Inhibition of MMP-3 (unknown origin) by fluorescence based assay.
In series [24] the target is T6, Stromelysin-1. The experiment in a line: Inhibition of MMP-3 (unknown origin) by Colorimetric assay.
In series [25] the target is Acetylcholinesterase (Electrophorus electricus, UniProt O42275). The series is described as follows: Inhibition of Electrophorus electricus AChE.
Chain of Acetylcholinesterase (O42275 whole entry): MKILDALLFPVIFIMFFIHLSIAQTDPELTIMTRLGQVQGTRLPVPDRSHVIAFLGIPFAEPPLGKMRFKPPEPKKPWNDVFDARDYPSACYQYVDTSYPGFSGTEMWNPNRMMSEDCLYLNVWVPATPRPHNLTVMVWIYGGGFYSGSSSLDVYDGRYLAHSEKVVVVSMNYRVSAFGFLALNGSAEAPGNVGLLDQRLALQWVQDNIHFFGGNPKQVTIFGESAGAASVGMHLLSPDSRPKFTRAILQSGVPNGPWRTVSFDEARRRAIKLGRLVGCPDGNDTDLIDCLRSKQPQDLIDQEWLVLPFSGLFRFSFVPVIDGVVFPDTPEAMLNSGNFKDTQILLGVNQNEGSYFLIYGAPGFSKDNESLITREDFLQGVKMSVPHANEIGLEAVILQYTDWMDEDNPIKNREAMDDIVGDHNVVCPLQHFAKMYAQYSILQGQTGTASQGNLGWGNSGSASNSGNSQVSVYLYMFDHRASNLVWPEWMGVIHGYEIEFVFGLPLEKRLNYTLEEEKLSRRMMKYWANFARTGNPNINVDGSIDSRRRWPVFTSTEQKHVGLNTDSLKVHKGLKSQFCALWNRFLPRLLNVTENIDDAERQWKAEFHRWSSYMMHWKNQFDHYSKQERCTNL
Series [26] has as its target Amyloid-beta precursor protein (Homo sapiens) (UniProt P05067). The series is described as follows: Inhibition of amyloid beta (1 to 42 ) (unknown origin) self aggregation at 100 uM relative to control.
Series [27] relates to SH-SY5Y. The series is described as follows: Protection against amyloid beta (1 to 42) induced toxicity in human SH-SY5Y cells assessed as increase in cell viability. In kind it is functional.
Series [28] in a line: Inhibition of Pseudomonas aeruginosa Metallo-beta-lactamase VIM-2.
Series [29] relates to Pseudomonas aeruginosa. The experiment in a line: Inhibition of Pseudomonas aeruginosa Metallo-beta-lactamase VIM-2 at 50 uM relative to control.
Series [30] can be described thus: Therapeutic index, ratio of CC50 for HEK293 cells to EC50 for Escherichia coli expressing VIM-2. In kind it is toxicity. Particulars: human, read-out: Ratio CC50/EC50.
Series [31] deals with T3, Macrophage metalloelastase. The series is described as follows: Inhibition of human MMP-12.
Target sequence in this assay (P39900 whole entry): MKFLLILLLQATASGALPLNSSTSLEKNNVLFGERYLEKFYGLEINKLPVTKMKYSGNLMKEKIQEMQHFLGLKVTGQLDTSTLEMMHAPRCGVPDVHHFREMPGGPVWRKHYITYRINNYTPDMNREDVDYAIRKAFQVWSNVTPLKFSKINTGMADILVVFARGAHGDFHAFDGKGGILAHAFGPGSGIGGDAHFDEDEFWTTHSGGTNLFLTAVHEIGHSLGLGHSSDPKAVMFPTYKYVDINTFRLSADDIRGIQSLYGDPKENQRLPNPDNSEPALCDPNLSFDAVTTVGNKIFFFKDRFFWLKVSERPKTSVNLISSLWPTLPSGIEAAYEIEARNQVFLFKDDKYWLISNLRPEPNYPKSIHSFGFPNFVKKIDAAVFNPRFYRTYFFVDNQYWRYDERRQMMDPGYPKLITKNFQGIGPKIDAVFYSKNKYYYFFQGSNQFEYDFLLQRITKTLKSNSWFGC
Series [32] addresses T6, Stromelysin-1. The series is described as follows: Inhibition of human MMP-3.

T6 sequence (P08254 whole entry): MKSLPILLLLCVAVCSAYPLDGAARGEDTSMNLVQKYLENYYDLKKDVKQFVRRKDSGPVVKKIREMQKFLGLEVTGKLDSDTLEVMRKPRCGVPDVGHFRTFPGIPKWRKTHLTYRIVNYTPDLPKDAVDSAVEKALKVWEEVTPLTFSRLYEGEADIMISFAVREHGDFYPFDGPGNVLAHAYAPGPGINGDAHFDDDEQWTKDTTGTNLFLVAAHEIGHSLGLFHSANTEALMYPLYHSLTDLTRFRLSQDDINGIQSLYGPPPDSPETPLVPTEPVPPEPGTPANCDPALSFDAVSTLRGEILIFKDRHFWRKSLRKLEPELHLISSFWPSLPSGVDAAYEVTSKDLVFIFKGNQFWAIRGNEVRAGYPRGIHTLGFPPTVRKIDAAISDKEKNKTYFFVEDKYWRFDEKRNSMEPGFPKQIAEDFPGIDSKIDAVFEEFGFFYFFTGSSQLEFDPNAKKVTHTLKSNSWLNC
Chain of Amine oxidase [flavin-containing] B (P27338 whole entry): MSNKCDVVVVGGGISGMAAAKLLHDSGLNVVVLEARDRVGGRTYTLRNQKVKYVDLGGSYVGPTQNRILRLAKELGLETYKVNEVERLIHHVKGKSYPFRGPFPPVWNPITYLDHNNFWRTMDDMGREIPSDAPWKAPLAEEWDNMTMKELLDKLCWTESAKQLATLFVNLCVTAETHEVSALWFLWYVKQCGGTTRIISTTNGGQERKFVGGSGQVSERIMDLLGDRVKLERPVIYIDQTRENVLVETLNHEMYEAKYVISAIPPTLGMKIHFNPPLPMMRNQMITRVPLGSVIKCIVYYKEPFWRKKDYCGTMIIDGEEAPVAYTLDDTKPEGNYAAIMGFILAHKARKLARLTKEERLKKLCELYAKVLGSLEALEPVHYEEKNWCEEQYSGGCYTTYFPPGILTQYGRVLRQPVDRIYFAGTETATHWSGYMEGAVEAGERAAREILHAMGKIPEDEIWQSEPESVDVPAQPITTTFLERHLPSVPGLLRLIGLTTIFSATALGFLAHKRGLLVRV
Chain of Amyloid-beta precursor protein (Homo sapiens) (P05067 whole entry): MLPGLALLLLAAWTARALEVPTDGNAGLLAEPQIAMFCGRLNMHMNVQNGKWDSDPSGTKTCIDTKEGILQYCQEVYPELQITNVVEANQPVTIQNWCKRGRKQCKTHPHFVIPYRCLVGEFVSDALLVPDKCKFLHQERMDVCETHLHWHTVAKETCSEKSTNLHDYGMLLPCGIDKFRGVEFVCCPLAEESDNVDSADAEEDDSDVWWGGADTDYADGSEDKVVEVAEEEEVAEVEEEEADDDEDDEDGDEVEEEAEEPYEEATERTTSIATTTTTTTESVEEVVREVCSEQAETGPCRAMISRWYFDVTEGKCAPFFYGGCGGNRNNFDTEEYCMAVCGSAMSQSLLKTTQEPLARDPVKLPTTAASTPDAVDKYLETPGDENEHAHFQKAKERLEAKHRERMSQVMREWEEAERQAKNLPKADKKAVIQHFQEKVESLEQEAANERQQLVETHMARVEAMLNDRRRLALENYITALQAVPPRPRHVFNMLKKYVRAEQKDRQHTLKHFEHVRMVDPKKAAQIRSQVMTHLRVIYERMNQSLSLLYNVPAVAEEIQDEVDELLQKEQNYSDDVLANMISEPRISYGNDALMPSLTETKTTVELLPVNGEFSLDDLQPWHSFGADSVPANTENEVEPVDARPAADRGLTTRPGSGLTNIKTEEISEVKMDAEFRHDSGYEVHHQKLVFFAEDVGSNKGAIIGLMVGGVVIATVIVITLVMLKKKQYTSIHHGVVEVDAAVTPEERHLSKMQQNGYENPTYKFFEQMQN

A word on the IC50: it is the concentration at which inhibition is half-maximal. The Ki is a measure of affinity in units of concentration, obtained from inhibition or displacement. With `CCCCCCCCO/N=C/c1cc(=O)c(O)c[nH]1`, the IC50 came out at 1.6 µM in series [1] and 7.99 µM in [2]. In addition, the Ki in series [3] and in series [5] was 32.54 µM throughout. Besides, the Kis in [4] and in series [6] was 21.3 µM throughout.
In general, inhibition refers to the change of the read-out against control, counted positive when it falls. Turning to `Oc1coccc1=S`, the inhibition in series [7] is 93%; in series [8] it was 90%; in [9] it was greater than 90%.
Take `On1ccc2ccccc2c1=S`: the results for the inhibition in [7] and in series [8] were 93% and 90%, respectively.
Turning to `Cc1cc(=S)c(O)c(C(=O)NCc2ccc(-c3ccccc3)cc2)o1`, half-maximal inhibition in series [10] (IC50) required 13.9 µM.
Take `Cn1ccc(=O)c(O)c1C(=O)NCc1ccc(-c2ccccc2)cc1`: the IC50 in series [11] was found to be 25 µM; in series [12] it was 25 µM; in series [13] it was 25 µM; in [14], 4 µM; in [15], 1.2 µM.
For the compound `O=C(NCc1ccc(-c2ccccc2)cc1)c1cccc(=O)n1O`, the IC50 in series [11] is 25 µM; in series [12], 25 µM; in series [13], 25 µM; in series [14], 4 µM; in series [15], 0.018 µM. Moreover, the Activity in series [16] is 80%; in [17], 23%; in series [18], 22%; in series [19], 25%; in series [20], 60%.
Compound `CCCNC(=O)CCC(=O)NCc1c(O)c(=O)cc(C)n1C` came in with an inhibition in series [21] of 10%.
With `Cc1cc(=O)c(O)c(CO)n1CCn1cc(COc2ccc3ccc(=O)oc3c2)nn1`, the IC50 in series [22] came to 0.68 µM.
Regarding `[O-][n+]1ccccc1S` [PYRITHIONE], the figures for the IC50 in series [23] and in [24] were 35 µM and 20 µM, respectively.
In the case of `Cc1c(OCc2ccccc2)c(=O)ccn1-c1ccc(CC(=O)Nc2ccc(-c3nc4ccccc4s3)cc2)cc1`, in series [25], half-maximal inhibition (IC50) required 14.7 µM. The inhibition in [26] was found to be 68%. Further, in series [27], the Activity was 100%.
For the compound `Cc1cc(=O)c(O)c(CO)n1CCCn1cc(COc2cc3ccccc3oc2=O)nn1`, in [22], inhibition was half-maximal at 0.86 µM (IC50).
As to `CCCCCCO/N=C/c1cc(=O)c(O)c[nH]1`, the 50% inhibitory concentration (IC50) stood at 2.04 µM in series [1] and 13.89 µM in series [2]. In addition, the Ki in series [3] and in [5] was 24.84 µM throughout. Besides, the Kis in series [4] and in series [6] was 18.1 µM each time.
`[O-][n+]1ccccc1S`: in series [28], half-maximal inhibition (IC50) was put at 0.908 µM and affinity was put at a Ki of 0.217 µM.
On to `O=C(O)c1cccc(=S)n1O`, for which affinity in [28] was put at a Ki of 0.013 µM. Also, the inhibition in series [29] was determined as 98%. In series [30], the selectivity ratio stood at 8800.
In turn, `Cc1c(OCc2ccccc2)c(=O)ccn1CCCC(=O)Nc1ccc(Cc2nc3ccccc3s2)cc1` showed an IC50 in series [25] of 14.7 µM.
Take `On1ccc2[nH]cnc2c1=S`: the inhibition in series [8] came to 90%.
Turning to `O=C(O)c1c[nH]c2ccccc2c1=S`, in series [7], the inhibition was determined as 93%.
Take `O=C(NCc1ccc(-c2ccccc2)cc1)c1occc(=O)c1O`: the IC50 worked out at 25 µM in series [11]; 25 µM in series [12]; 25 µM in series [13]; 4 µM in series [14]; 0.018 µM in series [15]; 0.018 µM in series [31]. The same compound showed an IC50 in [32] of 0.077 µM.

The values are drawn from ChEMBL document CHEMBL5241119, “Hydroxypyrone derivatives in drug discovery: from chelation therapy to rational design of metalloenzyme inhibitors” (RSC Med Chem, 2022).
